Data as given in paper PMC6592956, “Characterization of Porcine Hepatic and Intestinal Drug Metabolizing CYP450: Comparison with Human Orthologues from A Quantitative, Activity and Selectivity Perspective” (Scientific Reports, 2019).
Entries after “also recorded” stand apart in the source; their conditions may differ. Marks after values point to notes of the source that are not given here.

Key:
[1] = system: T1, CYP2C; assay: Group mean of log10 Km (Km in µM) for porcine hepatic microsomes from 8 male pigs, probe metabolism at 37 °C, LC-MS/MS.; format: biochemical, pig liver microsomes; conditions: n = 8
T1 construct: native enzymes in hepatic or duodenal microsomes

[2] = system: T1, CYP2C; assay: Group mean of log10 Km (Km in µM) for porcine hepatic microsomes from 8 female pigs, probe metabolism at 37 °C, LC-MS/MS.; format: biochemical, pig liver microsomes; conditions: n = 8
[3] = system: porcine intestinal CYP450 enzymes; conditions: for Vmax in intestinal microsomes as % of the hepatic Vmax: intestinal versus hepatic microsomes
[4] = system: porcine CYP450; conditions: outcome of general decision tree, Figure 4
[5] = system: porcine intestinal CYP450 enzymes; assay: in vitro; conditions: pig
[6] = system: hepatic CYP450 abundancies; assay: Pearson correlation between hepatic CYP450 abundancies and probe activities
[7] = target: T2, CYP2D (Sus scrofa, UniProt O46658); assay: Incubation with inhibitors: DXM-O-demethylation in porcine hepatic microsomes; format: in vitro ADME, conventional pig; conditions: for Inhibition of DXM-O-demethylation by inhibitor: porcine hepatic microsomes; for Ratio of residual activity (substrate + inhibitor versus substrate only), CYP2D DXM: DXM 10 µM, inhibitors SFZ 0.5, α-NFV 0.1 (1 µM), QND 0.1, KET 0.3, DDC 20, 8-MPS 1 µM, mean (SD) of 3
T2 construct: from tissue; host or cells: pig liver microsomes
T2 sequence (O46658 1-500): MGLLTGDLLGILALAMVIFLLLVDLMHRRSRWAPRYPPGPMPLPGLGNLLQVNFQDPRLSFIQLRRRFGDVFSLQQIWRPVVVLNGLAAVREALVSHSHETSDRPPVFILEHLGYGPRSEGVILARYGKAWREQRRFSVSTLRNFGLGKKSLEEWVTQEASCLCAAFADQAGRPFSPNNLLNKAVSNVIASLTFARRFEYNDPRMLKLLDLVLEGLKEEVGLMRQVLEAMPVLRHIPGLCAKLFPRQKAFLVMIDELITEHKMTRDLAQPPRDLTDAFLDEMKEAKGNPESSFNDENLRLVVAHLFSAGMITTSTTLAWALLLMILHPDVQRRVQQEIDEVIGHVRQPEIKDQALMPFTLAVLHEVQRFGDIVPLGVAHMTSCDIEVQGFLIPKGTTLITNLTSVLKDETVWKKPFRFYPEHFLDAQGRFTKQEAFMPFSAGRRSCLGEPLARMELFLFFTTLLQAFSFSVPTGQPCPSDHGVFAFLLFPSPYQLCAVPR
Method: (§1) The inhibitors used were α-NFV, 8-MPS, KET, SFZ, QND, and DDC for CYP1A/2 A, CYP2A, CYP3A, CYP2C, CYP2D, and CYP2E1, respectively. […] All incubations were performed in triplicate.

[8] = system: CYP2D; set-up: method as in Cyrus et al., 2011 and references herein; conditions: human; ref Cyrus et al., 2011 and references herein; cited from earlier work
[9] = system: porcine CYP2D25; set-up: method as in Skaanild, 2006; Hosseinpour and Wikvall, 2000; conditions: ref Skaanild, 2006; Hosseinpour and Wikvall, 2000; cited from earlier work
[10] = system: CYP2E; assay: Incubation with inhibitors: CZ-hydroxylation in porcine hepatic microsomes; format: in vitro ADME, conventional pig; conditions: for Ratio of residual activity (substrate + inhibitor versus substrate only), CYP2E CZ: CZ 50 µM, inhibitors SFZ 0.5, α-NFV 0.1 (1 µM), QND 0.1, KET 0.3, DDC 20, 8-MPS 1 µM, mean (SD) of 3; for Inhibition of CZ-hydroxylation by inhibitor: porcine hepatic microsomes
Method: as §1

[11] = system: CYP2A; assay: Incubation with inhibitors: CM-hydroxylation in porcine hepatic microsomes; format: in vitro ADME, conventional pig; conditions: for Ratio of residual activity (substrate + inhibitor versus substrate only), CYP2A CM: CM 1 µM, inhibitors SFZ 0.5, α-NFV 0.1 (1 µM), QND 0.1, KET 0.3, DDC 20, 8-MPS 1 µM, mean (SD) of 3
Method: as §1

[12] = system: CYP3A; assay: Incubation with inhibitors: MDZ-hydroxylation in porcine hepatic microsomes; format: in vitro ADME, conventional pig; conditions: for Ratio of residual activity (substrate + inhibitor versus substrate only), CYP3A MDZ: MDZ 20 µM, inhibitors SFZ 0.5, α-NFV 0.1 (1 µM), QND 0.1, KET 0.3, DDC 20, 8-MPS 1 µM, mean (SD) of 3
Method: as §1

[13] = system: CYP1A; assay: Incubation with inhibitors: PH-O-deethylation in porcine hepatic microsomes; format: in vitro ADME, conventional pig; conditions: PH 20 µM; inhibitors SFZ 0.5, α-NFV 0.1 (1 µM), QND 0.1, KET 0.3, DDC 20, 8-MPS 1 µM; mean (SD) of 3
Method: as §1

[14] = system: CYP2D6; set-up: method as in Cyrus et al, 2011; conditions: ref Cyrus et al, 2011; cited from earlier work
[15] = system: CYP2C; conditions: for Ratio of residual activity (substrate + inhibitor versus substrate only), CYP2C TB: TB 200 µM, inhibitors SFZ 0.5, α-NFV 0.1 (1 µM), QND 0.1, KET 0.3, DDC 20, 8-MPS 1 µM, mean (SD) of 3
[16] = system: CYP3A; conditions: human; ref Cyrus et al., 2011 and references herein; cited from earlier work
[17] = system: human CYP450; conditions: Supplementary Table 4; ref Yuan et al., 2002 and references herein; cited from earlier work
[18] = system: CYP2A; set-up: method as in Cyrus et al., 2011 and references herein; conditions: human; ref Cyrus et al., 2011 and references herein; cited from earlier work
[19] = system: CYP2E1; set-up: method as in Baranovà et al., 2005; Pratt-hyatt et al., 2010; conditions: human; ref Baranovà et al., 2005; Pratt-hyatt et al., 2010; cited from earlier work

## CCCCNC(=O)NS(=O)(=O)c1ccc(C)cc1 [TB, tolbutamide]
[1]
  log_Km, male: 3,0641
[2]
  log_Km, female: 3,3239
[3]
  Vmax in intestinal microsomes as % of the hepatic Vmax: 2%
[4]
  Enzyme involvement: Low affinity: CYP2C, CYP3A
[5]; duodenal microsomes
  Km at 10 min: 1410 µM
[6]; level 1 (TB 5.00 µM)
  Pearson's correlation coefficient, TB activity vs hepatic CYP2C33 abundance: 0.53
  Pearson's correlation coefficient, TB activity vs hepatic CYP2C49 abundance: 0.64*
[6]; level 2 (TB 10.0 µM)
  Pearson's correlation coefficient, TB activity vs hepatic CYP2C33 abundance: 0.55
  Pearson's correlation coefficient, TB activity vs hepatic CYP2C49 abundance: 0.65*
[6]; level 3 (TB 50.0 µM)
  Pearson's correlation coefficient, TB activity vs hepatic CYP2C33 abundance: 0.62*
  Pearson's correlation coefficient, TB activity vs hepatic CYP2C49 abundance: 0.68*
[6]; level 4 (TB 100 µM)
  Pearson's correlation coefficient, TB activity vs hepatic CYP2C33 abundance: 0.62*
  Pearson's correlation coefficient, TB activity vs hepatic CYP2C49 abundance: 0.71*
[6]; level 5 (TB 200 µM)
  Pearson's correlation coefficient, TB activity vs hepatic CYP2C33 abundance: 0.62*
  Pearson's correlation coefficient, TB activity vs hepatic CYP2C49 abundance: 0.69*
[6]; level 6 (TB 400 µM)
  Pearson's correlation coefficient, TB activity vs hepatic CYP2C33 abundance: 0.61
  Pearson's correlation coefficient, TB activity vs hepatic CYP2C49 abundance: 0.72*

## C=C[C@H]1C[N@@]2CC[C@H]1C[C@@H]2[C@@H](O)c1ccnc2ccc(OC)cc12 [Quinidine, quinidine]
[7]; listed as QND
  Inhibition of DXM-O-demethylation by inhibitor: did not inhibit; also recorded: no inhibition
[8]
  Ki: 30 to 400 nM
[9]
  Inhibition of porcine CYP2D25: not to inhibit

## Nc1ccc(S(=O)(=O)Nc2ccnn2-c2ccccc2)cc1 [Sulphaphenazole, sulphaphenazole]
[10]
  Ratio of residual activity (substrate + inhibitor versus substrate only), CYP2E CZ: 1.03 (0.061)
[11]
  Ratio of residual activity (substrate + inhibitor versus substrate only), CYP2A CM: 1.05 (0.023)
[12]
  Ratio of residual activity (substrate + inhibitor versus substrate only), CYP3A MDZ: 1.20 (0.050)
[13]
  Ratio of residual activity (substrate + inhibitor versus substrate only), CYP1A PH: 1.09 (0.030)
[7]
  Ratio of residual activity (substrate + inhibitor versus substrate only), CYP2D DXM: 0.97 (0.080)
[14]
  Inhibition of CYP2D6 in men: do not significantly inhibit
[15]
  Ratio of residual activity (substrate + inhibitor versus substrate only), CYP2C TB: 0.98 (0.135)

## CC(=O)N1CCN(c2ccc(OCC3COC(Cn4ccnc4)(c4ccc(Cl)cc4Cl)O3)cc2)CC1 (stereo not shown) [Ketoconazole, ketoconazole]
[10]
  Inhibition of CZ-hydroxylation by inhibitor: 20%
[12]; porcine hepatic microsomes
  Effect of inhibitor on MDZ-hydroxylation: potent inhibitors
[7]
  Inhibition of DXM-O-demethylation by inhibitor: could not inhibit
[16]
  Ki: […]

## Cc1ncc2n1-c1ccc(Cl)cc1C(c1ccccc1F)=NC2 [MDZ, Midazolam]
[3]; duodenal microsomes, pool of 16 pigs, n=3, mean (SD)
  Duodenum a (Hill coefficient): 1.26 (0.048)
[3]; ileal microsomes, pool of 16 pigs, n=3, mean (SD)
  Ileum a (Hill coefficient): 1.56 (0.45)
[3]
  Vmax in intestinal microsomes as % of the hepatic Vmax: 2%
[3]; jejunal microsomes, pool of 16 pigs, n=3, mean (SD)
  Jejunum a (Hill coefficient): 1.41 (0.043)
[4]
  Enzyme involvement: High affinity: CYP3A
[17]
  Km: 3 to 5 µM
[5]; Duodenum Km, duodenal microsomes, pool of 16 pigs, n=3, mean (SD)
  Km at 10 min: 22.1 µM
[5]; Ileum Km, ileal microsomes, pool of 16 pigs, n=3, mean (SD)
  Km at 10 min: 16.2 µM
[5]; Jejunum Km, jejunal microsomes, pool of 16 pigs, n=3, mean (SD)
  Km at 10 min: 23.1 µM
[6]; level 1 (MDZ 0.50 µM)
  Pearson's correlation coefficient, MDZ activity vs hepatic CYP3A22 abundance: 0.54
[6]; level 2 (MDZ 2.00 µM)
  Pearson's correlation coefficient, MDZ activity vs hepatic CYP3A22 abundance: 0.62
[6]; level 3 (MDZ 5.00 µM)
  Pearson's correlation coefficient, MDZ activity vs hepatic CYP3A22 abundance: 0.69*
[6]; level 4 (MDZ 10.0 µM)
  Pearson's correlation coefficient, MDZ activity vs hepatic CYP3A22 abundance: 0.71*
[6]; level 5 (MDZ 20.0 µM)
  Pearson's correlation coefficient, MDZ activity vs hepatic CYP1A2 abundance: 0.51
  Pearson's correlation coefficient, MDZ activity vs hepatic CYP3A22 abundance: 0.72*
  Pearson's correlation coefficient, MDZ activity vs hepatic CYP3A46 abundance: 0.57
[6]; level 6 (MDZ 50.0 µM)
  Pearson's correlation coefficient, MDZ activity vs hepatic CYP1A2 abundance: 0.56
  Pearson's correlation coefficient, MDZ activity vs hepatic CYP3A22 abundance: 0.65*
  Pearson's correlation coefficient, MDZ activity vs hepatic CYP3A46 abundance: 0.68*

## COc1c2occc2cc2ccc(=O)oc12 [8-methoxypsoralen]
[18]
  Ki: 100 to 1500 nM

## CCN(CC)C(=S)S [Diethyldithiocarbamate, diethyldithiocarbamate]
[10]
  Ratio of residual activity (substrate + inhibitor versus substrate only), CYP2E CZ: 0.87 (0.003)-
  Inhibition of CZ-hydroxylation by inhibitor: decreased
[11]
  Ratio of residual activity (substrate + inhibitor versus substrate only), CYP2A CM: 0.74 (0.079)
[11]; porcine hepatic microsomes
  Inhibition of CM-hydroxylation by inhibitor: decreased
[12]
  Ratio of residual activity (substrate + inhibitor versus substrate only), CYP3A MDZ: 1.15 (0.074)
[13]
  Ratio of residual activity (substrate + inhibitor versus substrate only), CYP1A PH: 1.04 (0.010)
[7]
  Ratio of residual activity (substrate + inhibitor versus substrate only), CYP2D DXM: 0.93 (0.084)
[19]
  Ki: 12200 to 38000 nM
[15]
  Ratio of residual activity (substrate + inhibitor versus substrate only), CYP2C TB: 0.87 (0.046)
[15]; porcine hepatic microsomes
  Inhibition of TB-hydroxylation by inhibitor: decreased
